Experimental data: the supplement of paper PMC6411743

compound: Nc1nc2c(ncn2[C@@H]2O[C@H](COP(=O)(O)OP(=O)(O)OP(=O)(O)O)[C@@H](O)[C@H]2O)c(=O)[nH]1 [guanosine triphosphate]; test: pEC50 of GTP-induced change in protein thermal stability (2D-TPP)
Method: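 2D thermal proteome profiling in Jurkat crude lysate. Lysate was treated 10 min at room temperature with Na-GTP (0, 0.001, 0.01, 0.1, 0.5 mM), heated to 12 temperatures (42-63.9 °C) for 3 min, and soluble protein was quantified by TMT10 LC-MS/MS. pEC50 is the median over replicates of dose-response fits (FDR-controlled hits).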
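Wherever pEC50 of ATP-induced change in protein thermal stability (2D-TPP) is given: lysate dosed with Na-ATP at 0 0.005 0.05 0.5 and 2 mM.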

Sequence of UniProt O95140 (O95140 whole entry): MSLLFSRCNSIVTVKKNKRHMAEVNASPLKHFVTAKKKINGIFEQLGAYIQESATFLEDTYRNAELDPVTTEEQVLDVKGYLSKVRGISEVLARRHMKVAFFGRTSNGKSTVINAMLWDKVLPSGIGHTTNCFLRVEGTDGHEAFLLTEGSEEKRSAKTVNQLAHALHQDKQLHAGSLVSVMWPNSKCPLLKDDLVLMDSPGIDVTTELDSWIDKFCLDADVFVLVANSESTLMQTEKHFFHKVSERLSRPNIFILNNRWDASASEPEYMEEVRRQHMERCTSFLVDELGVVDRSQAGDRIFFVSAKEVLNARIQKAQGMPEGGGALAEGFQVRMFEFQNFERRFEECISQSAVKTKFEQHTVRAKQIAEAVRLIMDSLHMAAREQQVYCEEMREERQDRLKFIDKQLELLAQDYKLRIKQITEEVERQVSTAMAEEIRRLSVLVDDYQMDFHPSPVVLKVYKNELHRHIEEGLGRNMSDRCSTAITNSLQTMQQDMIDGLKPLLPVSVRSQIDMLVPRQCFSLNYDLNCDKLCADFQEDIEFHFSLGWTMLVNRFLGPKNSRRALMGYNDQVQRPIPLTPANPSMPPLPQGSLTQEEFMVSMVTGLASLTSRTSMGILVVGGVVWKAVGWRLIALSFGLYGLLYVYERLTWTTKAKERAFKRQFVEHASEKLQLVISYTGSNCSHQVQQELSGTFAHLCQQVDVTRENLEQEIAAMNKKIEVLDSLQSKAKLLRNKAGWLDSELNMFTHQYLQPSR
Sequence of UniProt Q15029 (Q15029 whole entry): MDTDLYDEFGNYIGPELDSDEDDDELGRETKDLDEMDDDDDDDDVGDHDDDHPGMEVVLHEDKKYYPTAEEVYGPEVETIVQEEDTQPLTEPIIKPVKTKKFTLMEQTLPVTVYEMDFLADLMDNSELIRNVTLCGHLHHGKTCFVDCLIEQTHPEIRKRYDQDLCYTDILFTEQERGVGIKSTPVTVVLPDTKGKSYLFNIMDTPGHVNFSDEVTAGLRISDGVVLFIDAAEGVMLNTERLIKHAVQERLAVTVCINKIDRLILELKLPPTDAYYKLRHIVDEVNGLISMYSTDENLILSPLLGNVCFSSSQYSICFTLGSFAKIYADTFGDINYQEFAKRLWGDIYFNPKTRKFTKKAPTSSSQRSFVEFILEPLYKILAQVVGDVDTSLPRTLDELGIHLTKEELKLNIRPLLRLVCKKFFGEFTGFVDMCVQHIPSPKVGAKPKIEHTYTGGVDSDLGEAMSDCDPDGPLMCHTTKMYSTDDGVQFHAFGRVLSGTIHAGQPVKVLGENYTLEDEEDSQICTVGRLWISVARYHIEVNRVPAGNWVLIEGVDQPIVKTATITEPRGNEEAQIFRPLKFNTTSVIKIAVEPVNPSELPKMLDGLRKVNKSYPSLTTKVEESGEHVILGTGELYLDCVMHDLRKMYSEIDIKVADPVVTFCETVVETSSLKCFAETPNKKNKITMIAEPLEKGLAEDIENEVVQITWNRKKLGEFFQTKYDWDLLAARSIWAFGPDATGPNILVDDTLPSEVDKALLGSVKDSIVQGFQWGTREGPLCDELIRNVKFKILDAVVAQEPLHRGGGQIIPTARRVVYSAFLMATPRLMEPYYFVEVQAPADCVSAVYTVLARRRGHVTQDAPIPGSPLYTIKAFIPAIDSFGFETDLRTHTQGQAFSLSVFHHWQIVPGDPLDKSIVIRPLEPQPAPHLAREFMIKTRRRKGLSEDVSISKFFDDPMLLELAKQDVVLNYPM
Sequence of UniProt Q9NSE4 (Q9NSE4 whole entry): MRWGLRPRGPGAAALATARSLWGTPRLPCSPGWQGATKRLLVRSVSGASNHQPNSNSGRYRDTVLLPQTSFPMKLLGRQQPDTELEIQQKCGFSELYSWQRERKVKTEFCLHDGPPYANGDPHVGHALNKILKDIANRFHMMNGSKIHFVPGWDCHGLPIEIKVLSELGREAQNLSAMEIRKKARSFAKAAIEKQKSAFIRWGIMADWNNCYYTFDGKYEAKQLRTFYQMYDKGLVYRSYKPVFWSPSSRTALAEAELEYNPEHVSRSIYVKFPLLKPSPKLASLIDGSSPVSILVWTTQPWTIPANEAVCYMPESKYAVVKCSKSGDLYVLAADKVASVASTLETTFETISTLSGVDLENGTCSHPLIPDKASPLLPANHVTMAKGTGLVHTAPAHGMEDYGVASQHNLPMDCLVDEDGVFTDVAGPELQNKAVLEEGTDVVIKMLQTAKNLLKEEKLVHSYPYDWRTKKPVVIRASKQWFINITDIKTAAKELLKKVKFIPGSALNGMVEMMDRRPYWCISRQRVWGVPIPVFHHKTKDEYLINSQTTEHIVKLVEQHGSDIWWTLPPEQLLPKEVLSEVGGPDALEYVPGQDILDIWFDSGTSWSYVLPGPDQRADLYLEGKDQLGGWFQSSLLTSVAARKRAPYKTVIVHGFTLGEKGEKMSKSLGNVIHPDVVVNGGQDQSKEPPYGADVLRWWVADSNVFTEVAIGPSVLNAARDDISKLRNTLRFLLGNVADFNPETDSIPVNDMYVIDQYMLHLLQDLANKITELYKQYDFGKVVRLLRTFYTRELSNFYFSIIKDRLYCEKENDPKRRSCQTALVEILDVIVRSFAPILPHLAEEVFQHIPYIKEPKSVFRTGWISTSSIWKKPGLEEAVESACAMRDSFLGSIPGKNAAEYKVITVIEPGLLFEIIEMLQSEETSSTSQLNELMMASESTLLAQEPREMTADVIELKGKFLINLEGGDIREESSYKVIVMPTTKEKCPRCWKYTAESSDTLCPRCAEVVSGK
Sequence of UniProt P49590 (P49590 whole entry): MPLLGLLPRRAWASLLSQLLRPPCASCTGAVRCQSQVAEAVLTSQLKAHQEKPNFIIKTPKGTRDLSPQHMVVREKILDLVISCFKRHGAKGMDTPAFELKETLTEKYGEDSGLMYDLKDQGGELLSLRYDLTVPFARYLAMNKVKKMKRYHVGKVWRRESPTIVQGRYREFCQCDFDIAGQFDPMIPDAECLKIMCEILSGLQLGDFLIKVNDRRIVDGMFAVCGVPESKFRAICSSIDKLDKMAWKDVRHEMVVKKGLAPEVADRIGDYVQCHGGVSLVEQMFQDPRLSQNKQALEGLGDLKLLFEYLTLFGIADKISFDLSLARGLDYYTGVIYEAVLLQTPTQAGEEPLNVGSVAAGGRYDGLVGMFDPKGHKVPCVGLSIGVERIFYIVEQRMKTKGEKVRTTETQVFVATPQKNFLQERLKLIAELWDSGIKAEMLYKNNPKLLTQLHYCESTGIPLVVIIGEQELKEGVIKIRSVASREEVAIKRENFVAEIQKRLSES
Sequence of UniProt Q13418 (Q13418 whole entry): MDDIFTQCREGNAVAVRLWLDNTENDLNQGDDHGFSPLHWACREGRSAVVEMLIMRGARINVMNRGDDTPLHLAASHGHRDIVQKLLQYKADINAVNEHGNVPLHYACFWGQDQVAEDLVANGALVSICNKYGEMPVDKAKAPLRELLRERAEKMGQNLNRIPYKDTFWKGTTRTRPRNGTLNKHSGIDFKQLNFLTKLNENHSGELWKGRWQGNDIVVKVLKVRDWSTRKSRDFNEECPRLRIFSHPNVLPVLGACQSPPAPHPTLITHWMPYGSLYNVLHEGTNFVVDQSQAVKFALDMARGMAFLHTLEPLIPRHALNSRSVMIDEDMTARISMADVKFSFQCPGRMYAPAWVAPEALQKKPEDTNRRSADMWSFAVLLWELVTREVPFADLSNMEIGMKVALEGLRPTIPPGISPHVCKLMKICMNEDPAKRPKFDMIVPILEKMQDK
Sequence of UniProt Q6P9H5 (Q6P9H5 whole entry): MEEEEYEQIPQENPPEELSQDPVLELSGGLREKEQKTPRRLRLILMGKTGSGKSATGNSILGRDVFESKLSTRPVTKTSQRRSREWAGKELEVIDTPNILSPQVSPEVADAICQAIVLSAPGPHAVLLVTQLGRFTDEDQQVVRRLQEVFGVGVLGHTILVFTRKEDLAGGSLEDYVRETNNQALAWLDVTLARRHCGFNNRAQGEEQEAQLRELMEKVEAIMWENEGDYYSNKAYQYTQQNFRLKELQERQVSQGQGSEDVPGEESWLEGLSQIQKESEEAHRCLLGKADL
Sequence of UniProt Q6DD88 (Q6DD88 whole entry): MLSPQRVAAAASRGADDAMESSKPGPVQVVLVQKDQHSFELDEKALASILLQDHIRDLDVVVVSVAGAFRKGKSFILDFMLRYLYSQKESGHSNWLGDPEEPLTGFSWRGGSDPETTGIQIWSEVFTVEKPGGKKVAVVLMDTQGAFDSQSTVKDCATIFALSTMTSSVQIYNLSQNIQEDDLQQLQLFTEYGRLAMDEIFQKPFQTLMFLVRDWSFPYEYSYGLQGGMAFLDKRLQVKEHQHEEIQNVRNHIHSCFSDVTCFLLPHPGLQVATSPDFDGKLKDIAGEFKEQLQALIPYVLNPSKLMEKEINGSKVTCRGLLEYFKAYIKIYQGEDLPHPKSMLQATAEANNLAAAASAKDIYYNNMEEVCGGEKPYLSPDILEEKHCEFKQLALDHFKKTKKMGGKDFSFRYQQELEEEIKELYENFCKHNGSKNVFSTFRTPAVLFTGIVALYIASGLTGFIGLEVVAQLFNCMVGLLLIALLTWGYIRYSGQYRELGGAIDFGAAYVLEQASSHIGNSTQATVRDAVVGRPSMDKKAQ
Sequence of UniProt P12081 (P12081 whole entry): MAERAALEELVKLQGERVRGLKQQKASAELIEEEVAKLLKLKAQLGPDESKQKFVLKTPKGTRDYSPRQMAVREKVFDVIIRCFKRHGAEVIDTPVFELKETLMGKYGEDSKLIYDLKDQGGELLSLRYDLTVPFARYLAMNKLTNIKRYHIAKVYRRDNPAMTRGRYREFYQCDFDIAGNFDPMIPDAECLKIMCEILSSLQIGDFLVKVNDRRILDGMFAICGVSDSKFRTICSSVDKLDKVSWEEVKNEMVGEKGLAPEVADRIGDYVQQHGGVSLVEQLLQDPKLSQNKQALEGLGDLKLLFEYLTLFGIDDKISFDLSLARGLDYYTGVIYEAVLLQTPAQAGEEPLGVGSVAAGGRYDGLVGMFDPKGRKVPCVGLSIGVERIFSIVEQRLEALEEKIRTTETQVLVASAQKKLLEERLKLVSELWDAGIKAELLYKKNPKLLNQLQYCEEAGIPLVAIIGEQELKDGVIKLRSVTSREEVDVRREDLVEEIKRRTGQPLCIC

Target | pEC50
ARL2 (effect direction: stabilized) (UniProt P36404) | 4.15
ARPC1B (effect direction: stabilized) (UniProt O15143) | 3.83
ARPC2 (effect direction: stabilized) (UniProt O15144) | 3.83
ATP2A2 (effect direction: stabilized) (UniProt P16615) | 4.31
AUP1 (effect direction: stabilized) (UniProt Q9Y679) | 3.82
BPNT1 (effect direction: destabilized) (UniProt O95861) | 3.59
CAMK4 (effect direction: stabilized) (UniProt Q16566) | 3.77
CCDC117 (effect direction: stabilized) (UniProt Q8IWD4) | 3.46
CCT2 (effect direction: stabilized) (UniProt P78371) | 3.56
CCT4 (effect direction: stabilized) (UniProt P50991) | 3.65
CNP (effect direction: stabilized) (UniProt P09543) | 3.91
CSK (effect direction: stabilized) (UniProt P41240) | 4.3
DARS (effect direction: stabilized) (UniProt P14868) | 3.9
DBN1 (effect direction: destabilized) (UniProt Q16643) | 3.79
DDX46 (effect direction: stabilized) (UniProt Q7L014) | 3.86
DGKA (effect direction: stabilized) (UniProt P23743) | 3.72
DHX38 (effect direction: stabilized) (UniProt Q92620) | 3.83
DTYMK (effect direction: stabilized) (UniProt P23919) | 4.06
EEF1A1 (effect direction: stabilized) (UniProt P68104) | 4.26

Target | pEC50
EHD1 (effect direction: stabilized) (UniProt Q9H4M9) | 4.34
EIF2B4 (effect direction: stabilized) (UniProt Q9UI10) | 3.73
GALK1 (effect direction: stabilized) (UniProt P51570) | 4.06
GIMAP6 (effect direction: stabilized) (UniProt Q6P9H5) | 3.81
GMPPB (effect direction: stabilized) (UniProt Q9Y5P6) | 3.82
GNAI2 (effect direction: stabilized) (UniProt P04899) | 4.51
GNL1 (effect direction: stabilized) (UniProt P36915) | 4.04
GTPBP3 (effect direction: stabilized) (UniProt Q969Y2) | 4.67
HARS2 (effect direction: stabilized) (UniProt P49590) | 3.55
HMGCS1 (effect direction: stabilized) (UniProt Q01581) | 3.79
IMPDH2 (effect direction: stabilized) (UniProt P12268) | 3.62
KIF2A (effect direction: stabilized) (UniProt O00139) | 4.29
LONP1 (effect direction: stabilized) (UniProt P36776) | 3.91
MAX (effect direction: destabilized) (UniProt P61244) | 4.65
MCM2 (effect direction: stabilized) (UniProt P49736) | 4.06
MCM6 (effect direction: stabilized) (UniProt Q14566) | 3.98
MFN2 (effect direction: stabilized) (UniProt O95140) | 4.04
NEK7 (effect direction: stabilized) (UniProt Q8TDX7) | 4.11

Other lines, results leading:

pEC50 | Target
3.44 | ATL3 (effect direction: stabilized) (UniProt Q6DD88)
4.37 | ATP13A1 (effect direction: stabilized) (UniProt Q9HD20)
< 3.3 | BCS1L (effect direction: stabilized) (UniProt Q9Y276)
3.62 | CCT3 (effect direction: stabilized) (UniProt P49368)
4.19 | CLPB (effect direction: stabilized) (UniProt Q9H078)
4.2 | CSNK2B (effect direction: stabilized) (UniProt P67870)
3.73 | DCK (effect direction: stabilized) (UniProt P27707)
3.93 | DHX15 (effect direction: stabilized) (UniProt O43143)
3.83 | DNM1L (effect direction: stabilized) (UniProt O00429)
4.32 | DRG2 (effect direction: stabilized) (UniProt P55039)
3.6 | DYNC1LI1 (effect direction: stabilized) (UniProt Q9Y6G9)
4.16 | DYNC1LI2 (effect direction: stabilized) (UniProt O43237)
3.94 | EEF2 (effect direction: stabilized) (UniProt P13639)
3.61 | EFTUD2 (effect direction: stabilized) (UniProt Q15029)
4.12 | EIF2B5 (effect direction: stabilized) (UniProt Q13144)
3.59 | FAR1 (effect direction: stabilized) (UniProt Q8WVX9)
4.02 | GMDS (effect direction: stabilized) (UniProt O60547)

pEC50 | Target
3.36 | GMPPA (effect direction: stabilized) (UniProt Q96IJ6)
4.07 | GMPS (effect direction: stabilized) (UniProt P49915)
4.36 | GNAI3 (effect direction: stabilized) (UniProt P08754)
4.01 | GSPT1 (effect direction: stabilized) (UniProt P15170)
3.91 | GUK1 (effect direction: stabilized) (UniProt Q16774)
3.69 | HARS (effect direction: stabilized) (UniProt P12081)
3.83 | HSPA4L (effect direction: stabilized) (UniProt O95757)
3.71 | IARS2 (effect direction: stabilized) (UniProt Q9NSE4)
4.17 | ILK (effect direction: stabilized) (UniProt Q13418)
3.57 | IPO7 (effect direction: stabilized) (UniProt O95373)
3.86 | MCM4 (effect direction: stabilized) (UniProt P33991)
4.14 | MCM7 (effect direction: stabilized) (UniProt P33993)
3.95 | MTHFD1 (effect direction: stabilized) (UniProt P11586)
3.75 | MTHFS (effect direction: stabilized) (UniProt P49914)
3.81 | NDUFA10 (effect direction: stabilized) (UniProt O95299)
4.44 | NME4 (effect direction: stabilized) (UniProt O00746)

compound: Nc1ncnc2c1ncn2[C@@H]1O[C@H](COP(=O)(O)OP(=O)(O)OP(=O)(O)O)[C@@H](O)[C@H]1O [adenosine triphosphate]; test: pEC50 of ATP-induced change in protein thermal stability (2D-TPP)
Procedure, shortened: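 Jurkat crude lysate was treated for 10 min at room temperature with five concentrations including vehicle, heated to 12 temperatures (42–63.9 °C) for 3 min, and given NP40 and benzonase (60 min, 4 °C). After ultracentrifugation, soluble protein was quantified by TMT LC-MS/MS, with fold changes against vehicle per temperature, median-normalised. pEC50 comes from dose-response fits per replicate over adjacent temperature pairs, with hits called by permutation-based false discovery rate control. Three independent experiments.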

Target | pEC50
ARL2 (effect direction: stabilized) (UniProt P36404) | 3.3
ARPC1B (effect direction: stabilized) (UniProt O15143) | 4.25
ARPC2 (effect direction: stabilized) (UniProt O15144) | 4.06
ATP2A2 (effect direction: stabilized) (UniProt P16615) | 3.33
AUP1 (effect direction: stabilized) (UniProt Q9Y679) | 3.27
BPNT1 (effect direction: destabilized) (UniProt O95861) | < 2.7
CAMK4 (effect direction: stabilized) (UniProt Q16566) | 3.88
CCDC117 (effect direction: stabilized) (UniProt Q8IWD4) | 3.47
CCT2 (effect direction: stabilized) (UniProt P78371) | 4.34
CCT4 (effect direction: stabilized) (UniProt P50991) | 3.07
CNP (effect direction: stabilized) (UniProt P09543) | 3.58
CSK (effect direction: stabilized) (UniProt P41240) | 3.56
DARS (effect direction: stabilized) (UniProt P14868) | 3.92
DBN1 (effect direction: destabilized) (UniProt Q16643) | 3.27
DDX46 (effect direction: stabilized) (UniProt Q7L014) | 3.56
DGKA (effect direction: stabilized) (UniProt P23743) | 3.3
DHX38 (effect direction: stabilized) (UniProt Q92620) | 4.09
DTYMK (effect direction: stabilized) (UniProt P23919) | 4.17
EEF1A1 (effect direction: stabilized) (UniProt P68104) | 4.11

Target | pEC50
EHD1 (effect direction: stabilized) (UniProt Q9H4M9) | 3.88
EIF2B4 (effect direction: stabilized) (UniProt Q9UI10) | 3.65
GALK1 (effect direction: stabilized) (UniProt P51570) | 4.02
GIMAP6 (effect direction: stabilized) (UniProt Q6P9H5) | 4.24
GMPPB (effect direction: stabilized) (UniProt Q9Y5P6) | 3.2
GNAI2 (effect direction: stabilized) (UniProt P04899) | 2.85
GNL1 (effect direction: stabilized) (UniProt P36915) | 2.8
GTPBP3 (effect direction: stabilized) (UniProt Q969Y2) | 3.74
HARS2 (effect direction: stabilized) (UniProt P49590) | 4.13
HMGCS1 (effect direction: stabilized) (UniProt Q01581) | 3.98
IMPDH2 (effect direction: stabilized) (UniProt P12268) | 3.26
KIF2A (effect direction: stabilized) (UniProt O00139) | 4.21
LONP1 (effect direction: stabilized) (UniProt P36776) | 4.03
MAX (effect direction: destabilized) (UniProt P61244) | 4.13
MCM2 (effect direction: stabilized) (UniProt P49736) | 3.58
MCM6 (effect direction: stabilized) (UniProt Q14566) | 4.05
MFN2 (effect direction: stabilized) (UniProt O95140) | 3.77
NEK7 (effect direction: stabilized) (UniProt Q8TDX7) | 4.02

Continued, values first:

pEC50 | Target
3.19 | ATL3 (effect direction: stabilized) (UniProt Q6DD88)
4.22 | ATP13A1 (effect direction: stabilized) (UniProt Q9HD20)
4.07 | BCS1L (effect direction: stabilized) (UniProt Q9Y276)
4.53 | CCT3 (effect direction: stabilized) (UniProt P49368)
4.02 | CLPB (effect direction: stabilized) (UniProt Q9H078)
3.84 | CSNK2B (effect direction: stabilized) (UniProt P67870)
3.19 | DCK (effect direction: stabilized) (UniProt P27707)
3.9 | DHX15 (effect direction: stabilized) (UniProt O43143)
3.38 | DNM1L (effect direction: stabilized) (UniProt O00429)
3.7 | DRG2 (effect direction: stabilized) (UniProt P55039)
3.71 | DYNC1LI1 (effect direction: stabilized) (UniProt Q9Y6G9)
3.69 | DYNC1LI2 (effect direction: stabilized) (UniProt O43237)
3.58 | EEF2 (effect direction: stabilized) (UniProt P13639)
2.76 | EFTUD2 (effect direction: stabilized) (UniProt Q15029)
3.77 | EIF2B5 (effect direction: stabilized) (UniProt Q13144)
3.36 | FAR1 (effect direction: stabilized) (UniProt Q8WVX9)
2.72 | GMDS (effect direction: stabilized) (UniProt O60547)

pEC50 | Target
3.08 | GMPPA (effect direction: stabilized) (UniProt Q96IJ6)
2.85 | GMPS (effect direction: stabilized) (UniProt P49915)
< 2.7 | GNAI3 (effect direction: stabilized) (UniProt P08754)
< 2.7 | GSPT1 (effect direction: stabilized) (UniProt P15170)
3.78 | GUK1 (effect direction: stabilized) (UniProt Q16774)
3.97 | HARS (effect direction: stabilized) (UniProt P12081)
3.54 | HSPA4L (effect direction: stabilized) (UniProt O95757)
4.18 | IARS2 (effect direction: stabilized) (UniProt Q9NSE4)
3.37 | ILK (effect direction: stabilized) (UniProt Q13418)
3.44 | IPO7 (effect direction: stabilized) (UniProt O95373)
3.88 | MCM4 (effect direction: stabilized) (UniProt P33991)
3.42 | MCM7 (effect direction: stabilized) (UniProt P33993)
3.71 | MTHFD1 (effect direction: stabilized) (UniProt P11586)
3.33 | MTHFS (effect direction: stabilized) (UniProt P49914)
3.91 | NDUFA10 (effect direction: stabilized) (UniProt O95299)
4.29 | NME4 (effect direction: stabilized) (UniProt O00746)
